Molecules are shown by their SMILES. Where a name gives a salt, the structure may show the parent alone. Read-outs that look alike come from different tables or passages of the source. Bounds are passed on as bounds.

Assay [1] has as its system gastric acid secretion. As to the kind of experiment: Inhibition of gastric acid secretion (Total Acid Output) in rats; antisecretory activity. The class given is in vivo, Female Sprague-Dawley rats. Conditions: for inhibition in vivo at 20 mg/kg: read-out: Percent Inhibition at 20 mg/kg id; for ED50: 1 h, read-out: ED50 (dose required to produce an average of 50% inhibition in Total Acid Output versus controls). On the procedure: The compounds of the invention are useful for inhibition of gastric acid secretion as measured by the following test. Female Sprague-Dawley rats are fasted twenty-four hours before testing and are given water ad libidum while being kept in individual cages. On the day of testing, the rats are weighed and are selected so that the rats in each test weigh within a range of ± 20 grams.
Surgery is carried out under light ether anesthesia. As soon as the rat is anesthetized its teeth are removed and a mid-line incision is made on the abdomen about 11/2 inches in length and the stomach and duodenum are exposed. If at this point the stomach is filled with food or fecal material, the rat is discarded. If the condition of the stomach is acceptable, a purse string stitch is placed on the fundic portion of the stomach with a suture, taking care not to pierce any blood vessels in the area. A small nick is then made into the stomach in the center of the purse string, and a cannula, consisting of a small vinyl tube with a flange on one end, is put into the stomach, and the purse string stitch is closed tightly around the flange. The test compound is administered either intraduodonally (i.d.) immediately after surgery or orally (p.o.) one hour prior to surgery at doses generally ranging from about 0.25 to about 160 mg/kg in a volume of 0.5 ml/100 grams rat. Control rats receive the test vehicle, 0.5% aqueous methyl cellulose.
After the surgery and (in the case of i.d. administration) after administration of the test compound, the abdominal wall and skin are closed simultaneously with three or four 18 mm wound clips and a collecting tube is placed on the cannula. Each rat is then placed in a box in which a longitudinal slit has been made to allow the cannula to hand freely and to allow the rat to move about unencumbered. After the rat has been allowed to stabilize for thirty minutes, the collection tube on the cannula is discarded and replaced with a clean tube to receive the gastric juice. Collections are made at one hour. At the end of the study, the cannula is removed and the rat is sacrificed.
The sample of gastric contents collected is drained into a centrifuge tube and centrifuged to pack down the sediment. The volume is read and a 1 ml aliquot of the supernatant is put into a beaker containing 10 ml distilled water and is titrated to pH7 using 0.01 N sodium hydroxide. Results are determined for Volume, Titratable Acid and Total Acid Output, where Volume equals total ml of gastric juice minus sediment; Titratable Acid (meg/1) equals amount of 0.01 N sodium hydroxide needed to titrate the acid to pH7; and Total Acid Output equals Titratable Acid times Volume. Results are reported as the ED50 dose (mg/kg required to produce an average of 50% inhibition in Total Acid Output versus controls in all the animals tested for a particular compound) and as percent inhibition.
Following the test procedure previously described, the following compounds were tested for their antisecretory activity. The ED50 values for p.o. administration and the percent inhibition for i.d. administration at 20 mg/kg are tabulated below (R1 '=H except where noted): […]

Assay [2] relates to gastric acid secretion. The assay is described as above. It is filed as in vivo, Female Sprague-Dawley rats. The conditions noted are these: rat; for ED50: ip, intraperitoneally (footnote ++), read-out: ED50 (compound administered intraperitoneally).
The mark [3] stands for this setting: rat, po, one hour prior to surgery.

Take `N=CN1CCCC(C(c2ccccc2)c2ccccc2)C1` (stereo not shown): in the assay on gastric acid secretion [1] (rat, id, 20 mg/kg), the inhibition in vivo at 20 mg/kg amounted to 68%. In addition, in the assay with gastric acid secretion [2], the ED50 (usually the dose at which the effect has come halfway, by size or by number of responders) came to 7 mg/kg.
Regarding `CCCCCCCCN=CN1CCCC(C(c2ccccc2)c2ccccc2)C1` (stereo not shown), in the assay with gastric acid secretion [1] (setting [3]), the ED50 was determined as 18.3 mg/kg. Further, in the assay with gastric acid secretion [1] (rat, id, 20 mg/kg), the inhibition in vivo at 20 mg/kg came to 92.2%.
In the same order, the values of `N=CN1CCC(C(c2ccccc2)c2ccc(Cl)cc2)CC1` (stereo not shown) are 2.32 mg/kg and 100%.
In the case of `CCCCCCCCN=CN1CCC(C(c2ccccc2)c2ccc(C)cc2)CC1` (stereo not shown), the inhibition in vivo at 20 mg/kg in the assay with gastric acid secretion [1] (rat, id, 20 mg/kg) came to 73%.
Regarding `COc1ccc(C(c2ccccc2)C2CCN(C=N)CC2)cc1` (stereo not shown), the ED50 in the assay on gastric acid secretion [1] (setting [3]) turned out to be 12.1 mg/kg. For the same compound, the inhibition in vivo at 20 mg/kg in the assay on gastric acid secretion [1] (rat, id, 20 mg/kg) was determined as 100%.
`CCCCCCCCN=CN1CCC(C(O)(c2ccccc2)c2ccccc2)CC1`: the ED50 in the assay with gastric acid secretion [2] amounted to 5 mg/kg.
On to `C(=NC12CC3CC(CC(C3)C1)C2)N1CCC(C(c2ccccc2)c2ccccc2)CC1`, for which the ED50 with gastric acid secretion [1] (setting [3]) amounted to 37 mg/kg. For the same compound, in the assay on gastric acid secretion [1] (rat, id, 20 mg/kg), the inhibition in vivo at 20 mg/kg was found to be 0%. Further, the % inhibition (commonly the drop in the measured response relative to a control, in per cent) at 80 mg/kg i.d. with gastric acid secretion [2] (i.d., 80 mg/kg (footnote)) was 52%.
`C#CCN=CN1CCC(C(c2ccccc2)c2ccccc2)CC1`: in the assay on gastric acid secretion [1] (setting [3]), the ED50 amounted to 6.07 mg/kg. Moreover, the inhibition in vivo at 20 mg/kg with gastric acid secretion [1] (rat, id, 20 mg/kg) is 100%.
For `C=CCN=CN1CCC(C(c2ccccc2)c2ccccc2)CC1`, in that order: 10.2 mg/kg and 100%.
For `CCCCCCCCC=CCCCCCCCCN=CN1CCC(C(c2ccccc2)c2ccccc2)CC1`, in that order: 66 mg/kg and 78.9%.
In the same order, the values of `CC(C)N=CN1CCC(C(c2ccccc2)c2ccccc2)CC1` are 9.8 mg/kg and 96%.
Take `CCCCCCCN=CN1CCC(C(c2ccccc2)c2ccccc2)CC1`: in the assay with gastric acid secretion [1] (setting [3]), the ED50 worked out at 11.6 mg/kg. For the same compound, the inhibition in vivo at 20 mg/kg in the assay with gastric acid secretion [1] (rat, id, 20 mg/kg) turned out to be 72%.
In the same order, the values of `Clc1ccc(CN=CN2CCC(C(c3ccccc3)c3ccccc3)CC2)cc1` are 20.7 mg/kg and 94%.
Turning to `COc1ccc(CN=CN2CCC(C(c3ccccc3)c3ccccc3)CC2)cc1`, the ED50 in the assay with gastric acid secretion [1] (setting [3]) is below 40 mg/kg. In addition, in the assay on gastric acid secretion [1] (rat, id, 20 mg/kg), the inhibition in vivo at 20 mg/kg amounted to 63%.
In the case of `C(=NCCc1ccccc1)N1CCC(C(c2ccccc2)c2ccccc2)CC1`, the ED50 in the assay on gastric acid secretion [1] (setting [3]) was 3.7 mg/kg. Besides, the inhibition in vivo at 20 mg/kg in the assay on gastric acid secretion [1] (rat, id, 20 mg/kg) is 100%.
For `CCCCCCCCCCCCN=CN1CCC(C(c2ccccc2)c2ccccc2)CC1.O=C(O)/C=C/C(=O)O` [4-(Diphenylmethyl)-1-N-(n-dodecyliminomethyl)piperidine fumarate], in that order: 53 mg/kg and 80%.
Turning to `CCCCCCCCN=C(C)N1CCC(C(c2ccccc2)c2ccccc2)CC1.[O-][Cl+3]([O-])([O-])O` [4-(Diphenylmethyl)-1-[1-(octylimino)ethyl]-piperidine Monoperchlorate], the ED50 in the assay on gastric acid secretion [1] (Rattus norvegicus, po) stood at 14 mg/kg. Besides, the inhibition in vivo at 20 mg/kg in the assay with gastric acid secretion [1] (Rattus norvegicus) turned out to be 98%.
With `CCCCCCCCN=CN1CCC(C(c2ccccc2)c2ccc(O)cc2)CC1` (stereo not shown) [4-[(4-hydroxyphenyl)phenylmethyl]-1-[(octylimino)methyl]piperidine], the ED50 with gastric acid secretion [2] is 2 mg/kg.
Take `CCCCCCCCN=CN1CCC(C(c2ccccc2)c2ccc(OC)cc2)CC1` (stereo not shown) [4-[(4-methoxyphenyl)phenylmethyl]-1-[(octylimino)methyl]piperidine]: in the assay on gastric acid secretion [1] (setting [3]), the ED50 amounted to 16.9 mg/kg. Further, the inhibition in vivo at 20 mg/kg with gastric acid secretion [1] (rat, id, 20 mg/kg) came to 62%.
Turning to `N=CN1CCCCC1` [N-iminomethylpiperidine], the “inhibition of gastric acid secretion at doses four times or greater than those at which the subject compounds are active” value in the assay on gastric acid secretion [1] (doses four times or greater than active doses of subject compounds) is recorded as “does not inhibit gastric acid secretion”. In the assay on gastric acid secretion [1] (rat, id, 20 mg/kg), the inhibition in vivo at 20 mg/kg worked out at 0%. Besides, in the assay on gastric acid secretion [1] (rat, p.o., 100 mg/kg), the “inhibition of gastric acid secretion at a dose of 100 mg/kg p.o.” value was “no inhibition whatsoever”. In addition, the “ED50 (mg/kg po): result in words” value in the assay on gastric acid secretion [1] (rat, po, at 80 (mg/kg)) is recorded as “Inactive”. Besides, the “inhibition of gastric acid secretion at 80 mg/kg i.d.” value in the assay on gastric acid secretion [2] (i.d., 80 mg/kg) was “no inhibition whatsoever”.
Consider `CCCCCCCCN=CN1CCC(=C(c2ccccc2)c2ccccc2)CC1` [R1,A=benzhydrylidene; R2=H; R3=n-octyl], for which the ED50 in the assay with gastric acid secretion [1] (setting [3]) was determined as 0.625 mg/kg. Besides, the inhibition in vivo at 20 mg/kg in the assay with gastric acid secretion [1] (rat, id, 20 mg/kg) came out at 68.2%.
For `CCCCCCCCN=CN1CCC(C2c3ccccc3-c3ccccc32)CC1` [R1=9-fluorenyl; A=H; R2=H; R3=n-octyl], in that order: 15.9 mg/kg and 48%.
With `N=CN1CCC(Cc2ccccc2)CC1` [R1=benzyl; A=H; R2=H; R3=H], in the assay with gastric acid secretion [1] (setting [3]), the ED50 came out at 114 mg/kg. Besides, in the assay on gastric acid secretion [1] (rat, id, 20 mg/kg), the inhibition in vivo at 20 mg/kg is 98%.
For `Cl.N=CN1CCC(C(c2ccccc2)c2ccccc2)CC1.O` [R1=diphenylmethyl; A=H; R2=H; R3=H, 4-Diphenylmethyl-1-iminomethylpiperidine hydrochloride hydrate], the ED50 in the assay on gastric acid secretion [1] (setting [3]) is 0.7 mg/kg. Also, the inhibition in vivo at 20 mg/kg in the assay on gastric acid secretion [1] (rat, id, 20 mg/kg) stood at 100%.
In the same order, the values of `C(=NCc1ccccc1)N1CCC(C(c2ccccc2)c2ccccc2)CC1` [R1=diphenylmethyl; A=H; R2=H; R3=benzyl] are 3.3 mg/kg and 100%.
As for `C(=NCCCCc1ccccc1)N1CCC(C(c2ccccc2)c2ccccc2)CC1` [R1=diphenylmethyl; A=H; R2=H; R3=drawing 19], the ED50 in the assay with gastric acid secretion [1] (setting [3]) was found to be 8.1 mg/kg. Moreover, the inhibition in vivo at 20 mg/kg with gastric acid secretion [1] (rat, id, 20 mg/kg) stood at 82%.
For `CCN=CN1CCC(C(c2ccccc2)c2ccccc2)CC1` [R1=diphenylmethyl; A=H; R2=H; R3=ethyl, 4-(Diphenylmethyl)-1-N-ethyliminomethyl-piperidine oxalate hemihydrate], in that order: 4.3 mg/kg and 100%.
In the same order, the values of `CCCCN=CN1CCC(C(c2ccccc2)c2ccccc2)CC1` [R1=diphenylmethyl; A=H; R2=H; R3=n-butyl] are 8.6 mg/kg and 100%.
In the same order, the values of `CCCCCCCCCCN=CN1CCC(C(c2ccccc2)c2ccccc2)CC1` [R1=diphenylmethyl; A=H; R2=H; R3=n-decyl] are 8.2 mg/kg and 79%.
With `CCCCCCN=CN1CCC(C(c2ccccc2)c2ccccc2)CC1` [R1=diphenylmethyl; A=H; R2=H; R3=n-hexyl], the ED50 in the assay on gastric acid secretion [1] (setting [3]) was 8.7 mg/kg. Also, in the assay with gastric acid secretion [1] (rat, id, 20 mg/kg), the inhibition in vivo at 20 mg/kg was 96%.
For `CCCCCCCCCN=CN1CCC(C(c2ccccc2)c2ccccc2)CC1` [R1=diphenylmethyl; A=H; R2=H; R3=n-nonyl], in that order: 19.6 mg/kg and 93%.
In the same order, the values of `CCCCCCCCN=CN1CCC(C(c2ccccc2)c2ccccc2)CC1.O.O=C(O)/C=C/C(=O)O` [R1=diphenylmethyl; A=H; R2=H; R3=n-octyl, 4-(Diphenylmethyl)-1-[(octylimino)methyl]piperidine Fumarate Hydrate] are 9.8 mg/kg and 64%.
As for `CCC(=N)N1CCC(C(c2ccccc2)c2ccccc2)CC1` [R1=diphenylmethyl; A=H; R2=ethyl; R3=H], the ED50 with gastric acid secretion [1] (setting [3]) is above 40 mg/kg. For the same compound, the inhibition in vivo at 20 mg/kg in the assay on gastric acid secretion [1] (rat, id, 20 mg/kg) was 75%.
For `N=CN1CCC(c2ccccc2)CC1` [R1=phenyl; A=H; R2=H; R3=H], in that order: around 40 mg/kg and 77%.
Consider `CC(=O)C1(c2ccccc2)CCN(C=N)CC1` [R1=phenyl; A=drawing 20; R2=H; R3=H], for which the inhibition in vivo at 20 mg/kg in the assay on gastric acid secretion [1] (Rattus norvegicus) was determined as 71%.

(Values after patent publication US4251655A, “Substituted N-iminomethylpiperidines” (McNeilab, Inc., priority 1979, dated 1981).)
